Experimental data reported in US20240009190A1, “COMBINATION CANCER THERAPY USING CHK INHIBITOR” (SHANGHAI HUAYU BIOTECHNOLOGY CO., LTD., priority 2020, published 2024).

Experiments:
[1] = patients receiving various doses; pooled analysis of 14 phase I-III studies; cited from earlier work
MC38 cells [2] = experiment: MC38 tumor model in mPD-1-/- mPD-L1-/- hPD-1+/+ hPD-L1+/+ transgenic mice (Example 3); type: in vivo, C57BL/6-Pdcd1^em1(hPDCD1) Cd274^em1(hPD-L1)/Smoc mice
Description: MC38 cells were maintained at 37° C. in 5% CO2 in RPMI 1640 medium (10-040-CV, Corning cellgro) supplemented with 10% FBS (10270-106, GIBCO, Thermo Fisher Scientific), 100 U/ml penicillin and 100 U/ml streptomycin in 10-cm Petri dishes.
Female C57BL/6-Pdcd1^em1(hPDCD1) Cd274^em1(hPD-L1)/Smoc mice, 20-25 g (Shanghai Model Organisms), were subcutaneously injected with about 3×10^5 MC38 cells, respectively.
When tumors grew to 50-70 mm^3, these mice were randomly assigned to four groups, 8 mice per group, this day was designated as Day 0. From Day 0, the animals were administered with an anti-PD-1 antibody (Toripalimab, Shanghai Junshi Biosciences Co., Ltd. China) in saline at 40.0 mg/mL, an hIgG4 (Novoprotein, NovoPro Bioscience Inc.) in saline at 3.3 mg/mL, Compound 6 in saline at 8 mg/mL in combination with the anti-PD-1 antibody, and Compound 6 in combination with hIgG4, respectively, according to the dosing regimen shown in Table 8 above.
Mice were observed every day for their physical conditions and activities, and mice body weight and tumor volume were measured twice a week. The tumor volume (V) was calculated as (length×width^2)/2.
Mice in Group 1 and Group 2 were subjected to euthanasia at Day 14, and those from Group 3 and Group 4 on Day 21, from which tumors were collected and photographed. Mice body weights and tumor sizes were analyzed using the t-test in SPSS, and group differences were deemed statistically significant when the p-value was 0.05 or less. TGI and Zheng-Jun Jin's Q value were calculated.

MC38 cells [3] = experiment: MC38 tumor model in transgenic mice, lower dose of anti-PD-1 antibody (Example 4); type: in vivo, C57BL/6-Pdcd1^em1(hPDCD1) Cd274^em1(hPD-L1)/Smoc mice; conditions: Compound 6 8 mg/kg IP QD × 14; anti-PD-1 or hIgG4 2.5 mg/kg IP BIW × 3
Description: The test of Example 3 was repeated in the same transgenic mouse model using a lower dose of anti-PD-1 antibody, i.e., 2.5 mg/kg anti-PD-1, with some other minor modifications.
In particular, female C57BL/6-Pdcd1^em1(hPDCD1) Cd274^em1(hPD-L1)/Smoc mice (Shanghai Model Organisms), 5-7 weeks old, were subcutaneously injected with about 3×10^5 MC38 cells, respectively.
When tumors grew to 50-100 mm^3, these mice were randomly assigned to four groups, 8 mice per group, this day was designated as Day 0. From Day 0, the animals were administered with an anti-PD-1 antibody (Toripalimab, Shanghai Junshi Biosciences Co., Ltd. China) in 5% GS (5% glucose solution) at 40 mg/mL, an hIgG4 (Novoprotein, NovoPro Bioscience Inc.) in 5% GS at 3.3 mg/mL, Compound 6 in 5% GS at 8 mg/mL in combination with the anti-PD-1 antibody, and Compound 6 in combination with hIgG4, respectively, according to the dosing regimen shown in Table 10 below.

MC38 cells [4] = experiment: MC38 tumor model in transgenic mice, Compound 6, anti-PD-1 antibody and gemcitabine (Example 5); type: in vivo, C57BL/6-Pdcd1^em(hPDCD1) Cd274^em1(hPD-L1)/Smoc mice; conditions: Day 23; Compound 6 15 mg/kg IP QD × 14; GEM 20 mg/kg IV QW × 2; anti-PD-1 10 mg/kg IP Q5D × 3
Description: MC38 cells were maintained at 37° C. in 5% CO2 in RPMI 1640 medium (10-040-CV, Corning cellgro) supplemented with 10% FBS (10270-106, GIBCO) and used before the 10th subculture.
Female C57BL/6-Pdcd1^em(hPDCD1) Cd274^em1(hPD-L1)/Smoc mice (Shanghai Model Organisms), 20-25 g, were subcutaneously injected with about 5×10^5 MC38 cells, respectively.
When tumors grew to 50-70 mm^3, these mice were randomly assigned to 8 groups, 8 mice per group, this day was at Day 9. From Day 9, the animals were administered with gemcitabine (GEM) in saline at 20 mg/mL, an anti-PD-1 antibody (Toripalimab, Shanghai Junshi Biosciences Co., Ltd. China) in saline at 40 mg/mL, Compound 6 in saline at 8 mg/mL, Compound 6+gemcitabine, gemcitabine+anti-PD-1, Compound 6+anti-PD-1, Compound 6+gemcitabine+anti-PD-1, and the control vehicle (5% GS), respectively, according to the dosing regimen shown in Table 11 below.
Mice were observed every day for their physical conditions and activities, and mice body weight and tumor volume were measured every other day. The tumor volume (V) was calculated as (length×width^2)/2.
Mice body weights, and tumor sizes were analyzed using the t-test in SPSS, and group differences were deemed statistically significant when the p-value was 0.05 or less.
Tumor growth inhibition (TGI) was calculated by the following formula. Tumor growth inhibition=(average tumor size in vehicle group-average tumor size in administration group)/average tumor size in vehicle group×100%
Zheng-Jun Jin's Q value was calculated as described above.

CT-26 WT cells [5] = experiment: CT-26 WT subcutaneous tumor model, Compound 6 with anti-m-PD-1 antibody (Example 1); type: in vivo, BALB/c female mice; conditions: Day 27; Compound 6 35 mg/kg tail vein once per day; anti-m-PD-1 10 mg/kg IP once every five days, four times
Description: CT-26 WT cells were maintained at 37° C. in 5% CO2 in RPMI 1640 medium (10-040-CV, Corning cellgro) supplemented with 10% FBS (10270-106, GIBCO) and used before the 10th subculture.
At Day 0, 45 BALB/c female mice, 4-5 weeks old, were subcutaneously injected with about 200.0 μL of the CT-26 WT cell medium containing about 5×10^5 cells, respectively.
At Day 5, 32 tumor-bearing mice were randomly assigned to four groups according to their body weights, 8 mice per group. The remaining mice were subject to euthanasia. […]
(§1) Mice were observed every day for their physical conditions and activities, and mice body weight and tumor volume were measured every Tuesday, Thursday and Sunday. The tumor volume (V) was calculated as (length×width^2)/2.
(§2) At Day 27, mice were subject to euthanasia, from which tumors were collected, weighed and photographed. Mice body weights, tumor sizes and tumor weights were analyzed using the t-test in SPSS, and group differences were deemed statistically significant when the p-value was 0.05 or less.
Tumor growth inhibition (TGI) was calculated by the following two formulae. […]
Further, Zheng-Jun Jin's Q value was calculated using the formula Q=EA+B/(EA+EB−EA×EB) to assess the combined effect of the anti-PD-1 antibody and Compound 6, wherein EA+B, EA, and EB referred to the TGIs of the combination therapy, anti-PD-1 administration and Compound 6 administration, respectively. […]

[6] = Mice body weight and survival in CT-26 WT tumor model (Example 1); type: in vivo, BALB/c female mice; conditions: Day 27; Compound 6 35 mg/kg, anti-m-PD-1 10 mg/kg
Description: as §1, §2

CT-26 WT cells [7] = experiment: CT-26 WT subcutaneous tumor model, CHK inhibitors at lower dose with anti-m-PD-1 antibody (Example 2); type: in vivo, BALB/c female mice; conditions: for Average tumor size: compounds 15 mg/kg tail vein once per day, anti-m-PD-1 10 mg/kg IP once every five days
Description: The anti-tumor effect of Compound 6 at a lower dose in combination with an anti-PD-1 antibody was studied in this Example. Further, three compounds obtained by structurally modifying Compound 6, i.e., Compound 6-1, Compound 6-2 and Compound 6-3, were tested alone or in combination with an anti-PD-1 antibody for their anti-tumor effects.
At Day 0, 105 BALB/c female mice, 4-5 weeks old, were subcutaneously injected with about 200.0 μL of the CT-26 WT cell medium containing about 5×10^5 cells, respectively.
At Day 5, 80 tumor-bearing mice were randomly assigned to ten groups according to their body weights, 8 mice per group. The remaining mice were subject to euthanasia.
The ten groups of animals were administered with an anti-m-PD-1 antibody (BE0146, BioXcell) in PBS (21-040-CVR, BioXcell) at 1.0 mg/mL, Compound 6 in saline at 1.5 mg/mL, Compound 6-1 in saline at 1.5 mg/mL, Compound 6-2 in saline at 1.5 mg/mL, Compound 6-3 in saline at 1.5 mg/mL, the anti-m-PD-1 antibody+Compound 6, the anti-m-PD-1 antibody+Compound 6-1, the anti-m-PD-1 antibody+Compound 6-2, the anti-m-PD-1 antibody+Compound 6-3, and the control vehicle (saline), respectively, at doses shown in Table 3 below.
as §1
as §2, with “23,” for “27,”, “less. Tumor weight based tumor growth inhibition (TGI) and Zheng-Jun Jin's Q value were calculated.” for “less.”

[8] = Mice body weight in CT-26 WT tumor model (Example 2); type: in vivo, BALB/c female mice; conditions: for Average body weight: compounds 15 mg/kg tail vein once per day, anti-m-PD-1 10 mg/kg IP once every five days
Description: as §1
as §2, with “23,” for “27,”, “less. Tumor weight based tumor growth inhibition (TGI) and Zheng-Jun Jin's Q value were calculated.” for “less.”

[9] = Day 23, compounds 15 mg/kg, anti-m-PD-1 10 mg/kg

ipilimumab
patients who experienced immune-related adverse effects [1]: 64%

Toripalimab [anti-PD-1]
Average tumor size (MC38 cells [2]; Day 0 (day of grouping, start of dosing)): 59.1 ± 0.4 mm^3 | Average tumor size (MC38 cells [2]; Day 14, Compound 6 8 mg/kg IP QD Day 0-13, anti-PD-1 or hIgG4 3 mg/kg IP Q2D): 792.1 ± 207.1 mm^3 | TGI (%) on D14 (MC38 cells [2]; Day 14, Compound 6 8 mg/kg IP QD, anti-PD-1 or hIgG4 3 mg/kg IP Q2D): 58% | TGI (MC38 cells [3]): 46.95% | TGI based on tumor sizes (MC38 cells [4]): 17.05%

NC(=O)c1nnc(N[C@H]2CCCNC2)c2cc(-c3cccc(F)c3)sc12 [Compound 6, 2-(3-fluorophenyl)-4-(3-piperidineamino)-thieno[2,3-d]pyridazine-7-carboxylic acid amide]
TGI - tumor size (CT-26 WT cells [5]): 72.74% | TGI - tumor weight (CT-26 WT cells [5]): 77.53% | average mice weight, tumor weight deducted [6]: 18.41 g | Average tumor size (CT-26 WT cells [7]; Day 9): 163.24 mm^3 | Average tumor size (CT-26 WT cells [7]; Day 10): 220.45 mm^3 | Average tumor size (CT-26 WT cells [7]; Day 12): 367.43 mm^3 | Average tumor size (CT-26 WT cells [7]; Day 14): 494.61 mm^3 | Average tumor size (CT-26 WT cells [7]; Day 16): 666.40 mm^3 | Average tumor size (CT-26 WT cells [7]; Day 18): 770.93 mm^3 | Average tumor size (CT-26 WT cells [7]; Day 20): 955.40 mm^3 | Average tumor size (CT-26 WT cells [7]; Day 22): 1094.31 mm^3 | Average tumor size (CT-26 WT cells [7]; Day 23): 1071.65 mm^3 | Tumor weight based TGI (CT-26 WT cells [7]; [9]): 52.30% | Tumor weight, Average (CT-26 WT cells [7]; Day 23, group average of 8 mice): 1.35 g | Tumor weight, Mouse no. 1 (CT-26 WT cells [7]; Day 23, individual mouse): 0.95 g | Tumor weight, Mouse no. 2 (CT-26 WT cells [7]; Day 23, individual mouse): 0.28 g | Tumor weight, Mouse no. 3 (CT-26 WT cells [7]; Day 23, individual mouse): 0.59 g | Tumor weight, Mouse no. 4 (CT-26 WT cells [7]; Day 23, individual mouse): 2.43 g | Tumor weight, Mouse no. 5 (CT-26 WT cells [7]; Day 23, individual mouse): 2.97 g | Tumor weight, Mouse no. 6 (CT-26 WT cells [7]; Day 23, individual mouse): 0.97 g | Tumor weight, Mouse no. 7 (CT-26 WT cells [7]; Day 23, individual mouse): 2.04 g | Tumor weight, Mouse no. 8 (CT-26 WT cells [7]; Day 23, individual mouse): 0.57 g | Average body weight ([8]; Day 9): 16.39 g | Average body weight ([8]; Day 10): 16.85 g | Average body weight ([8]; Day 12): 16.87 g | Average body weight ([8]; Day 14): 17.03 g | Average body weight ([8]; Day 16): 17.88 g | Average body weight ([8]; Day 18): 17.89 g | Average body weight ([8]; Day 20): 18.25 g | Average body weight ([8]; Day 22): 18.37 g | Average body weight ([8]; Day 23): 18.98 g | average mice weight, tumor weight deducted [8, 9]: 17.63 g | TGI based on tumor sizes (MC38 cells [4]): 52.53%
